Source: patent US20030091557A1, “Methods and compositions for modulating ACE-2 activity” (priority 2001, published 2003)
Entries after “also recorded” stand apart in the source; their conditions may differ. Where a SMILES comes first, the peptide text is derived from it. Bridges are numbered along the chain shown (N, C = ends).

What was measured:
[1] = target: T1, ACE-2 (Homo sapiens, UniProt Q9BYF1); test: Fluorometric ACE-2 inhibition assay with peptide M-2195 as substrate; assay type: biochemical; set-up: nucleotides corresponding to the extracellular domain (M1-S740); FLAG; made in house; host or cells: Sf9 insect cells, recombinant baculovirus (transfer vector pA2); enzyme purified from conditioned media; details: inhibition of ACE-2 activity, M-2195 substrate; class by % inhibition at ~100 μM and IC50
Experimental: Substrate stock (10 μL of 10× concentration) was added to each well to be tested in blocks of three vertically down the plate. The reaction was monitored on a Spectrafluor Plus (Tecan) at an excitation wavelength of 340 nm and an emission wavelength of 400 nm (+/−35 nm) every 30 seconds for a time period of 10 minutes.
ACE-2 cleaves off the C-terminal lysine from the peptide with a concomitant increase in fluorescence signal.
The assays were performed in 96-well clear-bottom black plates (Costar, 07-200-590). In each well, 0.45 μg (5 pmoles) of ACE-2 is added to 90 μL of an assay solution containing 100 mM TRIS at pH 7.4, 0.1% Tween, and 0.4% DMSO. Substrate stock at 10 μL of 10× concentration is added to each well (for example, 10 μL of 1 mM stock for a final 100 μM concentration). The reaction was monitored on a Spectrafluor Plus (Tecan) at an excitation wavelength of 340 nm and an emission wavelength of 400 nm (+/−35 nm) every 30 seconds up to 10 minutes. All samples were measured in triplicate. […]
Target sequence in this assay (Q9BYF1 18-740): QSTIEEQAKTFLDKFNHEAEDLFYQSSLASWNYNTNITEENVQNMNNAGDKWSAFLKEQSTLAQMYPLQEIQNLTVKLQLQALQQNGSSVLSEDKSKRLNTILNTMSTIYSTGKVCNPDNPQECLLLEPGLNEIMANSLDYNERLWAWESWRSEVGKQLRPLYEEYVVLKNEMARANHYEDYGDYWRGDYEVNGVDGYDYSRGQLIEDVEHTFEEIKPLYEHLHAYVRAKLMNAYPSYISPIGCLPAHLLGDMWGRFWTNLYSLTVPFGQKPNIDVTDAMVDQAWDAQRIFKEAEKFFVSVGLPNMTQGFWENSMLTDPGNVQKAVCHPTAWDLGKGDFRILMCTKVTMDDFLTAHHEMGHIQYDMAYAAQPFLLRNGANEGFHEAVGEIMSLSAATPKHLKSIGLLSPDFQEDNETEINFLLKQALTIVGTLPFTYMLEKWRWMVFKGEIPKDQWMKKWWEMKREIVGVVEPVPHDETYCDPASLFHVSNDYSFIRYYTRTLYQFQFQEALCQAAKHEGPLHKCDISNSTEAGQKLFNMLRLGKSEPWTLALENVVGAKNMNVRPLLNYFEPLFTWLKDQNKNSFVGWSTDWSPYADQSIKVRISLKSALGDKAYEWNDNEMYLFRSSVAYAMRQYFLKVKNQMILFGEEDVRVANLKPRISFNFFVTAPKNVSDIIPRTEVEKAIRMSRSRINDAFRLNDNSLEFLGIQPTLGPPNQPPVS

[2] = target: T1, ACE-2; details: cited from earlier work
Target sequence in this assay (Q9BYF1 18-805): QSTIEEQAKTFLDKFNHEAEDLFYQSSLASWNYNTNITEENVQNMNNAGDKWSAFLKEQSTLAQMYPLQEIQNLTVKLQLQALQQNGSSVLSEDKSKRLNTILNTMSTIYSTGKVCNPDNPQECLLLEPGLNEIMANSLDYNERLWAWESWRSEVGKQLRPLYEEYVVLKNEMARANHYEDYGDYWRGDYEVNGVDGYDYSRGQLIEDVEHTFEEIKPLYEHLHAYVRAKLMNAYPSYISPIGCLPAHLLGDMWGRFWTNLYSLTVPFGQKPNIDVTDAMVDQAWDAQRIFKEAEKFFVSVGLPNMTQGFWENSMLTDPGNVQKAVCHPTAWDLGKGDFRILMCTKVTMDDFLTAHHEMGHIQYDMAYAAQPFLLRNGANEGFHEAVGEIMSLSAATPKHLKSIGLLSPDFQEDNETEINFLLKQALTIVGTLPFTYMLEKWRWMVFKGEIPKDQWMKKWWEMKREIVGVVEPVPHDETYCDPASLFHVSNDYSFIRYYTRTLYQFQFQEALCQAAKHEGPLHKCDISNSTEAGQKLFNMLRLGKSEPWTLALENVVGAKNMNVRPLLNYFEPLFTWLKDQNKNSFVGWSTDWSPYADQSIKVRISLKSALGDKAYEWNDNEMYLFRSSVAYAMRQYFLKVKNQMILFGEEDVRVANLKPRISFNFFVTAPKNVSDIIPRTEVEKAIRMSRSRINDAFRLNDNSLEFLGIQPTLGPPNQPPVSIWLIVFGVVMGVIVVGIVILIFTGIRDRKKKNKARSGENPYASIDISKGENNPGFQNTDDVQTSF

[3] = system: awake, free-ranging Sprague-Dawley rats; test: Arterial pressure in awake, free-ranging Sprague-Dawley rats, intravenous infusion; assay type: in vivo; details: awake rat
Experimental: FIG. 2. The effect of A1-9 on (A) mean arterial pressure ±SEM in the awake and freely-ranging rat (n=6 rats). Average mean arterial and pulse pressure as well as heart rate data were derived from the last 5 min of a 20 min continuous intravenous infusion period. * indicates a significant difference compared to vehicle-treated rats following analysis of variance and Dunnett's post-hoc test. A1-9 or angiotensin II (AII) continuous infusion doses are in μg/kg/min.
FIG. 3. The effect of A1-9 on angiotensin II-mediated pressor responses in normotensive awake male rats. Data are reported as average mean arterial pressure ±SEM (n=6 rats).
To investigate the effects of A1-9 on arterial pressure, A1-9 was administered to awake, free-ranging Sprague-Dawley rats via indwelling intravenous and arterial catheters. Intravenous infusion of A1-9 (1-3 μg/kg/min) in the awake rat produced a dose-dependent tonic increase in mean arterial pressure to a maximum of approximately 30 mmHg (FIG. 2). […] These responses seen with A1-9 were similar in magnitude to those induced by angiotensin II.
To examine any interactions induced by coadministration of A1-9 and angiotensin II, arterial pressure was monitored in the awake rat after they received either A1-9 (1 μg/kg/min) or saline coinfused with angiotensin II (1-100 ng/kg/min).

[4] = system: isolated aortic vascular rings; test: Developed isometric tension of isolated aortic vascular rings; set-up: species or system rat
Description: FIG. 1. Synergistic effects of Angiotensin 1-9 (A1-9) on angiotensin II (AII)-induced vasoconstriction, representative experiment (experiment 9 from Table 3). Data are presented as the mean percentage of the maximal contractile response as defined by full KCl depolarization following treatment with angiotensin peptides for four separate rings used to determine average response at each concentration. Generated tension was plotted against peptide concentration and the resulting concentration-response curves were subjected to regression analysis to determine whether the effects of the combination of A1-9 and angiotensin II produced additivity or synergy.
The effects of graded doses of A1-9 (Fields et al., Peptide Research 4: 95-101 (1991)) or A1-10 (substrate control) alone or in combination (Tallarida, Drug Synergism and Dose-Effect Data Analysis, Chapman and Hall/CRC, New York (2000), Tallarida et al., Life Science 61: PL417-425 (1997)) with angiotensin II were examined on isolated aortic vascular rings developed tension in response to vasoactive substances. Aortas were removed from mature male Sprague-Dawley rats, cleared of connective tissue, and cut into 1 mm rings. Rings were mounted to an isometric force transducer and placed in Krebs-Henseleit solution bubbled with 95% O2/5% CO2 at 37° C. Rings were exposed to a 2 g preload, relaxed and then exposed to various concentrations of angiotensin peptides alone or in combination. Following angiotensin peptide dosing, rings were fully constricted with KCl to determine the maximum degree of vasoconstriction.

CC[C@H](C)[C@@H]1NC(=O)[C@@H]2CCCN2C(=O)[C@H](CO)NC(=O)[C@@H](NC(=O)[C@@H](NC(=O)[C@H](Cc2ccccc2)NC(=O)CNC(=O)[C@H](CC(=O)O)NC(=O)CNC(C)=O)[C@@H](C)O)CSSC[C@@H](C(=O)N[C@@H](CC(=O)O)C(=O)N[C@@H](CC(C)C)C(=O)NCC(=O)N[C@@H](CC(=O)O)C(=O)N2CCC[C@H]2C(=O)N[C@@H](CCC(=O)O)C(=O)NCC(=O)NCC(=O)NCC(N)=O)NC(=O)[C@H](CCCNC(=N)N)NC(=O)[C@H](Cc2ccccc2)NC(=O)[C@H](Cc2c[nH]c3ccccc23)NC(=O)[C@@H]2CCCN2C(=O)[C@H](Cc2ccccc2)NC(=O)[C@H](CCSC)NC(=O)[C@H](CCCNC(=N)N)NC1=O [DX-601] (Ac-GDGFTCSPIRMFPWFRCDLGDPEGGG-NH2; disulfide 6-17)
Inhibition [1]: ++++ (signifies very strong inhibition (˜100% inhibition at 100 μM; with IC50 0.15 μM))

CC(=O)NCC(=O)N[C@@H](CC(=O)O)C(=O)N[C@@H](Cc1ccccc1)C(=O)N[C@@H](CO)C(=O)N1CCC[C@H]1C(=O)N[C@H]1CSSC[C@@H](C(=O)N2CCC[C@H]2C(=O)N[C@@H](CO)C(=O)NCC(=O)N[C@@H](CC(=O)O)C(=O)N2CCC[C@H]2C(=O)N[C@@H](CCC(=O)O)C(=O)NCC(=O)NCC(=O)NCC(N)=O)NC(=O)[C@H](C(C)C)NC(=O)[C@H](Cc2c[nH]c3ccccc23)NC(=O)[C@H](Cc2c[nH]c3ccccc23)NC(=O)[C@@H]2CCCN2C(=O)[C@H](CO)NC(=O)[C@H](Cc2c[nH]cn2)NC(=O)[C@H](CCCNC(=N)N)NC(=O)[C@H](CC(C)C)NC(=O)[C@H](C)NC(=O)[C@H](CCCCN)NC1=O [DX-602] (Ac-GDFSPCKALRHSPWWVCPSGDPEGGG-NH2; disulfide 6-17)
Inhibition [1]: ++++ (signifies very strong inhibition (˜100% inhibition at 100 μM; with IC50 0.15 μM))

C[C@H](CS)C(=O)N1CCC[C@H]1C(=O)O [captopril]
blockade of ACE-2 formation of A1-9 from angiotensin I [2]: not blocked

angiotensin 1-9 (DRVYIHPFH; Angiotensin 1-9; UniProt P01019 25-33, looked up) [A1-9, nonapeptide formed by removal of the C-terminal leucine from angiotensin I]
effect on pressor response elicited by angiotensin II ([3]; coinfused with angiotensin II (1-100 ng/kg/min), A1-9 at 1 μg/kg/min): potentiated the pressor response elicted by angiotensin II in an additive fashion
increase in mean arterial pressure, maximum ([3]; intravenous infusion 1-3 μg/kg/min): approximately 30 mmHg
potentiation of angiotensin II-mediated vasoconstriction ([4]; combined with angiotensin II, rat aortic rings): superadditive or synergistic interaction
maximum tension developed / effect on vascular tone, peptide alone ([4]; rat aortic rings): no effect on vascular tone; also recorded: minimal
factor by which relative potency of angiotensin II was increased beyond simple addition ([4]; shift of angiotensin II dose-effect curve by A1-9, rat aortic rings, FIG. 1): 11.6 (95% confidence limits of 3.02-44.7)
